Assay results published in patent US20060228419A1, “Solvent-free process for preparation of hydrophilic dispersions of nanoparticles of inclusion complexes” (SoluBest Ltd., priority 2005, published 2006).

Biological target: T1, hyaluronidase (Bos taurus, UniProt Q2YDK3)
T1 construct: purchased Sigma H 3506; host or cells: bovine testes (natural source)
T1 sequence (Q2YDK3 36-553): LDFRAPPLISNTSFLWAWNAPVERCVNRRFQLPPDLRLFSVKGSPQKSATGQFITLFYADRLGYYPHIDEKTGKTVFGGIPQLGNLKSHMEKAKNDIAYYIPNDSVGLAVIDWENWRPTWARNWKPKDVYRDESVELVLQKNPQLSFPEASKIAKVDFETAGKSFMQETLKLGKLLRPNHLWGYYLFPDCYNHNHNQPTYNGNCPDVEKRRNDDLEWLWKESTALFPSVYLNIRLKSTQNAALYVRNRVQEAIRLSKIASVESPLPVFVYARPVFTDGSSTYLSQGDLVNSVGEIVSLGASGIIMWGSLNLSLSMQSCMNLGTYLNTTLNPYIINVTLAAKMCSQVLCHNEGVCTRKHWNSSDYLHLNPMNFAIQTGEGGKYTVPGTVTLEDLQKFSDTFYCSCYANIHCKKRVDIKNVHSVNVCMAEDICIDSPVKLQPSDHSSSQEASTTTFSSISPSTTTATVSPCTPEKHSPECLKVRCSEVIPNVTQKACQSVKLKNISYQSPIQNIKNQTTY
Test: Stability in the presence of hyaluronidase (decrease of viscosity)
Format: in vitro ADME, bovine
Procedure: The stability of Solu-NaHA in the presence of the enzyme specific for hyaluronic acid, hyaluronidase (Sigma, H 3506, Hyaluronidase lyophilized (EC 3.2.1.35) Type I-S, from bovine testes, 608 U/mg solid) was measured by the decrease of the viscosity in time in comparison to blank. The degree of stability (protection against action of hyaluronidase) is defined as a decrease in the viscosity of the NaHA solution upon addition of the enzyme (dose of enzyme—10 U/ml). The control used was 0.1% solution of NaHA without the wrapping polymer (blank). Samples were maintained on a water bath at temperature 37° C. during 5 hrs. Sample made by Visco Star Plus. The decrease in viscosity was estimated in percentage to its initial value. The results in FIG. 5 show the stability of Solu-NaHA prepared with polymer A (NaHA with HPS) or with Polymer B (NaHA with B-790) against the action of hyaluronidase, established as 84-100% vs control 58-63%.
The stability of NaHA in the Solu-NaHA in the presence of hyaluronidase was measured by the decrease of the viscosity over time in comparison to blank. The stability of Solu-NaHA against the action of hyaluronidase was 70-90% vs 40-45% in blank (0.5% solution of NaHA).
The degree of stability of NaHA was measured as described in Example 7 above. The control used was 0.5% solution of NaHA without any polymer (blank). Samples were maintained on a water bath at temperature 37° C. during 5 hrs. Measurement of viscosity was made by Visco Star Plus. Decrease in viscosity is estimated in percentage relative to its initial value. It is established, that protection of Solu-NaHA with polymer A (HPS) against action of hyaluronidase gives a viscosity of 67-70% vs the control protection of 20-27%.

| Substance | stability against the action of hyaluronidase (0.1% NaHA, enzyme 10 U/ml, 37° C., up to 5 hrs, viscosity in percentage to initial value) | viscosity under enzyme activity, percentage relative to initial value (0.5% NaHA, 37° C., 5 hrs) | stability against the action of hyaluronidase (0.5% NaHA, viscosity over time versus blank (FIG. 6)) |
| --- | --- | --- | --- |
| sodium hyaluronate [0.1% solution of NaHA] | 58-63% | – | – |
| sodium hyaluronate [0.5% solution of NaHA] | – | 20-27% | 40-45% |
